Here are results for 37 molecules from ChEMBL document CHEMBL4483862, “Open-source discovery of chemical leads for next-generation chemoprotective antimalarials” (2018).

This assay has as its system Plasmodium berghei. In words: Luciferase/luciferin-expressing antifolate-resistant parasites were used to infect a culture of HepG2 cells that were pre-incubated with compounds. Infected hepatocytes emit light due to the luciferase reaction. Assay results are presented as the percent inhibition of light emission compared to control. […]. Type of assay: functional. Particulars: sporozoite; for IC90: read-out: LUCIFERASE INFECTION ASSAY - IC90.

The mark [1] stands for this setting: read-out: LUCIFERASE INFECTION ASSAY - IC50.

The term IC50 denotes the point on the concentration scale where inhibition reaches its midpoint. What is called IC90 is the point of the concentration-response curve where the effect stands at 90%. For `Cc1cc(C)c2c(=O)cc(C(=O)Nc3cccnc3)oc2c1`, the IC90 came out at 4.06 µM. In addition, the IC50 (HEPG2TOX_HILL_SLOPE 1.93, HEPG2TOX_R_SQUARED 0.965, PBLUC_HILL_SLOPE 5.85, PBLUC_R_SQUARED 0.609, read-out: LUCIFERASE INFECTION ASSAY - IC50) was determined as 2.79 µM.
`C/N=c1\scc(-c2ccc3c(c2)NC(=O)CO3)n1/N=C/c1cc(Br)c(O)c(OC)c1`: the concentration for an effect of 90% (IC90) worked out at 7.81 µM. In addition, where the note is “HEPG2TOX_HILL_SLOPE 8.72, HEPG2TOX_R_SQUARED 0.934, PBLUC_HILL_SLOPE 4.3, PBLUC_R_SQUARED 0.314, read-out: LUCIFERASE INFECTION ASSAY - IC50”, the IC50 amounted to 4.68 µM.
As for `CC1CCc2c(sc3nc(CN4CCOCC4)nc(N4CCN(S(=O)(=O)/C=C/c5ccccc5)CC4)c23)C1` (centres undefined), the IC90 is over 10 µM. Also, the IC50 under setting [1] is over 10 µM.
As to `CCc1ccc(C(CNC(=O)c2ccc3c(=O)n(-c4ccccc4F)c(=S)[nH]c3c2)N(C)C)cc1` (centres undefined), the IC90 was over 10 µM. Further, the half-inhibitory concentration (IC50) (PBLUC_HILL_SLOPE 11.1, PBLUC_R_SQUARED 0.257, read-out: LUCIFERASE INFECTION ASSAY - IC50) was determined as 9.21 µM.
Take `COc1ccc(-c2nnc(Nc3ccc4c(c3)c(=O)n(C)n4CC=C(C)C)[nH]2)cc1`: the IC90 was over 8.16 µM. Also, the IC50 under setting [1] is over 8.16 µM.
For the molecule `COc1ccc(-n2nc(C)c3c2NC(=O)CC3c2ccc(O)cc2)cc1` (centres undefined), the IC90 was over 9.45 µM. For the same molecule, the 50% inhibitory concentration (IC50) under setting [1] was over 9.45 µM.
Take `CCCNC(=O)C1(C)CCN(Cc2ccc3ccccc3n2)C1` (centres undefined): the IC90 is over 10.6 µM. Moreover, the IC50 under setting [1] was over 10.6 µM.
Regarding `Oc1cccc(-c2cnc3cnc(-c4ccco4)cn23)c1`, the IC90 is over 11.9 µM. In addition, the IC50 (HEPG2TOX_HILL_SLOPE 0.436, HEPG2TOX_R_SQUARED 0.582, PBLUC_HILL_SLOPE 2.53, PBLUC_R_SQUARED 0.573, read-out: LUCIFERASE INFECTION ASSAY - IC50) came to 6.72 µM.
In the case of `CC/C=C1/CC(=O)N(c2ccc(OC(C)=O)cc2)C1=O`, the IC90 is over 12.1 µM. Moreover, the IC50 under setting [1] was over 12.1 µM.
With `Cc1cc(C(=O)C(C)OC(=O)CCn2cnc3c(cnn3C)c2=O)c(C)n1-c1ccc(Cl)cc1` (centres undefined), the 90% effect concentration (IC90) is over 10 µM. Further, for the setting “HEPG2TOX_HILL_SLOPE 12.8, HEPG2TOX_R_SQUARED 0.861, read-out: LUCIFERASE INFECTION ASSAY - IC50”, the IC50 is over 10 µM.
For the molecule `O=[N+]([O-])c1cc(C(F)(F)F)ccc1N/N=C1\CCCCC1CCS(=O)(=O)c1ccc(Cl)cc1` (centres undefined), the IC90 was over 6.55 µM. Also, the half-maximal inhibitory concentration (IC50) under setting [1] is over 6.55 µM.
With `Cc1cnc(C(=O)OCC(=O)NCCc2ccccc2)cn1`, the IC90 is over 10 µM. Further, the IC50 under setting [1] was over 10 µM.
Consider `COc1ccccc1C(=O)c1cnc(Nc2cccc(Oc3ccccc3)c2)[nH]1`, for which the IC90 turned out to be 3.37 µM. For the same molecule, under “HEPG2TOX_HILL_SLOPE 2.29, HEPG2TOX_R_SQUARED 0.975, PBLUC_HILL_SLOPE 12.2, PBLUC_R_SQUARED 0.607, read-out: LUCIFERASE INFECTION ASSAY - IC50”, the IC50 is 2.81 µM.
For the molecule `CCN(c1ccccc1)S(=O)(=O)c1ccc(OCC(=O)N(C)Cc2nc3ccccc3s2)cc1`, the 90% effect concentration (IC90) was over 10 µM. In addition, the IC50 (PBLUC_HILL_SLOPE 9.53, PBLUC_R_SQUARED 0.61, read-out: LUCIFERASE INFECTION ASSAY - IC50) was 9.27 µM.
Consider `CC1(C)Cc2c(C#N)c(Nc3ccccc3)nc(NCCCO)c2CO1`, for which the IC90 is over 9.36 µM. Moreover, under setting [1], the 50% inhibitory concentration (IC50) was over 9.36 µM.
For the molecule `O=C1N(Cc2ccccn2)C(=O)C2(CCN(Cc3cc4ccccc4o3)CC2)N1CCc1ccccc1`, the 90% effect concentration (IC90) was over 6.67 µM. Besides, under “HEPG2TOX_HILL_SLOPE 6.35, HEPG2TOX_R_SQUARED 0.629, PBLUC_HILL_SLOPE 2.7, PBLUC_R_SQUARED 0.846, read-out: LUCIFERASE INFECTION ASSAY - IC50”, the IC50 came out at 4.34 µM.
For `Cc1ccc(S(=O)(=O)N2CCSc3cc(Cl)ccc32)cc1`, the IC90 came to 3.49 µM. Besides, under “HEPG2TOX_HILL_SLOPE 2.16, HEPG2TOX_R_SQUARED 0.961, PBLUC_HILL_SLOPE 19.3, PBLUC_R_SQUARED 0.449, read-out: LUCIFERASE INFECTION ASSAY - IC50”, the IC50 worked out at 3.12 µM.
As for `O=C(Nc1ccc(Cl)c(Cl)c1)Nc1ccnn1C1CCCCC1`, the IC90 was over 10 µM. Besides, the IC50 (PBLUC_HILL_SLOPE 0.873, PBLUC_R_SQUARED 0.34, read-out: LUCIFERASE INFECTION ASSAY - IC50) was over 10 µM.
Regarding `CSc1nc(C)nc(C)c1C(=O)Nc1nc(-c2ccc3c(c2)CCCC3)cs1`, the IC90 was over 10 µM. Besides, the concentration for half-maximal inhibition (IC50) (FFLUC_HILL_SLOPE 9.1, FFLUC_R_SQUARED 0.159, read-out: LUCIFERASE INFECTION ASSAY - IC50) was over 10 µM.
`O=C(Nc1ccc(Oc2ccccc2)cc1)c1csc(C(O)c2ccccc2)n1` (centres undefined): the IC90 was found to be 7.41 µM. Moreover, under setting [1], the IC50 stood at 1.63 µM.
With `COCC(C)n1c(C)cc(C(=O)COC(=O)c2ccccc2SCC(=O)NC2CCCCCCC2)c1C` (centres undefined), the IC90 is 5.25 µM. The IC50 (FFLUC_HILL_SLOPE 1.67, FFLUC_R_SQUARED 0.346, PBLUC_HILL_SLOPE 7.4, PBLUC_R_SQUARED 0.408, read-out: LUCIFERASE INFECTION ASSAY - IC50) came to 3.9 µM.
With `Cc1ccc(-n2c(C)cc(C(=O)COC(=O)c3cccn3C)c2C)cc1`, the IC90 is over 10 µM. Further, the half-maximal inhibitory concentration (IC50) (PBLUC_HILL_SLOPE 1.64, PBLUC_R_SQUARED 0.0485, read-out: LUCIFERASE INFECTION ASSAY - IC50) stood at 5.54 µM.
Turning to `Cc1sc2ncnc(N/N=C/c3cn(-c4ccccc4)nc3-c3ccc4c(c3)OCCO4)c2c1C`, the IC90 came out at 3.63 µM. Under “HEPG2TOX_HILL_SLOPE 4.65, HEPG2TOX_R_SQUARED 0.952, PBLUC_HILL_SLOPE 26.5, PBLUC_R_SQUARED 0.19, read-out: LUCIFERASE INFECTION ASSAY - IC50”, the IC50 was found to be 3.34 µM.
With `CCOC(=O)c1c(C)[nH]c(C(=O)C(C)OC(=O)c2n[nH]c(=O)c3ccccc23)c1C` (centres undefined), the IC90 was over 10 µM. Besides, for the setting “HEPG2TOX_HILL_SLOPE 1.25, HEPG2TOX_R_SQUARED 0.561, read-out: LUCIFERASE INFECTION ASSAY - IC50”, the IC50 is over 10 µM.
On to `Cc1cc(Oc2ccc(NC(=O)Nc3c(-c4c(Cl)cccc4Cl)noc3C)cn2)cc(C)c1Cl`, for which the IC90 is over 6.37 µM. Also, under “FFLUC_HILL_SLOPE 16.7, FFLUC_R_SQUARED 0.348, read-out: LUCIFERASE INFECTION ASSAY - IC50”, the IC50 was over 6.37 µM.
Regarding `CC(=O)OC1CCC2(C)C(CCC3C4CCC(C(C)C(=O)OCC(=O)c5ccccc5)C4(C)CC(=O)C32)C1` (centres undefined), the concentration for an effect of 90% (IC90) stood at 0.271 µM. Also, the IC50 (HEPG2TOX_HILL_SLOPE 12.9, HEPG2TOX_R_SQUARED 0.919, PBLUC_HILL_SLOPE 10.6, PBLUC_R_SQUARED 0.537, read-out: LUCIFERASE INFECTION ASSAY - IC50) is 0.22 µM.
On to `Cc1cc(NNC(=O)Nc2ccc(Cl)cc2)nc2c1c(C)nn2C`, for which the IC90 was over 9.57 µM. Under “HEPG2TOX_HILL_SLOPE 1.06, HEPG2TOX_R_SQUARED 0.939, PBLUC_HILL_SLOPE 2, PBLUC_R_SQUARED 0.223, read-out: LUCIFERASE INFECTION ASSAY - IC50”, the IC50 came to 4.05 µM.
Turning to `COc1ccc(/C=C/C(=O)c2cc(F)c(Cl)cc2Cl)c(OC)c1OC`, the IC90 was over 10 µM. Besides, the IC50 under setting [1] is 9.74 µM.
The matching figures for `Cc1c(C(=O)N/N=C/c2c3ccccc3c(Cl)c3ccccc23)nc2ccccn12`: over 10 µM and over 10 µM.
In the case of `O=C1CCCN1c1ccc(CNc2ccccc2S(=O)(=O)C(F)(F)F)cc1`, the IC90 is over 10 µM. The IC50 (HEPG2TOX_HILL_SLOPE 0.628, HEPG2TOX_R_SQUARED 0.884, read-out: LUCIFERASE INFECTION ASSAY - IC50) was over 10 µM.
Consider `CC(C)c1ccc(NC(=O)Nc2ccc3nc(-c4ccccn4)nn3c2)cc1`, for which the IC90 stood at 4.2 µM. Also, the IC50 (HEPG2TOX_HILL_SLOPE 13, HEPG2TOX_R_SQUARED 0.696, PBLUC_HILL_SLOPE 14.3, PBLUC_R_SQUARED 0.36, read-out: LUCIFERASE INFECTION ASSAY - IC50) came to 3.6 µM.
As to `CC(C)(C)c1cc(-c2csc(CS(=O)(=O)Cc3cccc(C(F)(F)F)c3)n2)cc(C(C)(C)C)c1O`, the IC90 was over 6.28 µM. The IC50 (FFLUC_HILL_SLOPE 261, FFLUC_R_SQUARED 0.0541, PBLUC_HILL_SLOPE 0.448, PBLUC_R_SQUARED 0.195, read-out: LUCIFERASE INFECTION ASSAY - IC50) was over 6.28 µM.
Regarding `CC(C)(C)NC(=O)CNC(=O)c1cc(-c2ccccc2)nc2c1cnn2Cc1ccccc1`, the IC90 is over 10 µM. The IC50 (PBLUC_HILL_SLOPE 16.4, PBLUC_R_SQUARED 0.327, read-out: LUCIFERASE INFECTION ASSAY - IC50) came out at 9.02 µM.
In the case of `C=CCc1c(C)nc2c(-c3ccccc3)cnn2c1N1CCN(CCO)CC1`, the IC90 is over 8.74 µM. Under “PBLUC_HILL_SLOPE 1.51, PBLUC_R_SQUARED 0.304, read-out: LUCIFERASE INFECTION ASSAY - IC50”, the IC50 amounted to 2.98 µM.
For the molecule `COc1cc(OC)cc(C(=O)Nc2nc3ccc(C)cn3c2C(=O)NC2CCCCC2)c1`, the IC90 came to 1.03 µM. Moreover, where the note is “HEPG2TOX_HILL_SLOPE 1.81, HEPG2TOX_R_SQUARED 0.745, PBLUC_HILL_SLOPE 12.8, PBLUC_R_SQUARED 0.53, read-out: LUCIFERASE INFECTION ASSAY - IC50”, the IC50 was determined as 0.872 µM.
Regarding `Cc1ccnc2nc(C(=O)Nc3cc(C(F)(F)F)ccc3N3CCCCCC3)nn12`, the IC90 is 0.413 µM. Besides, the 50% inhibitory concentration (IC50) (PBLUC_HILL_SLOPE 19, PBLUC_R_SQUARED 0.744, read-out: LUCIFERASE INFECTION ASSAY - IC50) was determined as 0.368 µM.
Take `Cc1cc(Cl)ccc1S(=O)(=O)N(Cc1ccncc1)C1CC1`: the concentration for an effect of 90% (IC90) stood at 7.99 µM. Further, the IC50 (PBLUC_HILL_SLOPE 1.42, PBLUC_R_SQUARED 0.462, read-out: LUCIFERASE INFECTION ASSAY - IC50) is 1.69 µM.
